Key:
Experiment in all cases: relative viability (nuclei count vs DMSO), 5 days (fraction); higher = more cells survive
[1] = system: EPLC-272H
Procedure, shortened: (§1)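 The day after seeding in 1536-well plates, lung cancer cell lines were treated by pin tool with a single drug, or with a fixed anchor-drug dose together with five library-drug doses (not always all listed) in √10 steps. After 5 days, a combined fix-and-stain solution (final 0.05% Triton X-100, 1% formaldehyde, 1 ug/ml Hoechst) was added. Nuclei counted on 4× images gave relative viability as treated counts over vehicle counts, reported as the median of duplicate plates.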

[2] = system: SW 900
Procedure, shortened: as §1

[3] = system: HOP-62
Procedure, shortened: as §1

[4] = system: NCI-H2085
Procedure, shortened: as §1

[5] = system: COR-L 105
Procedure, shortened: as §1

[6] = system: NCI-H2009
Procedure, shortened: as §1

[7] = system: NCI-H2170
Procedure, shortened: as §1

[8] = system: NCI-H1666
Procedure, shortened: as §1

[9] = system: HCC-78
Procedure, shortened: as §1

[10] = system: NCI-H1915
Procedure, shortened: as §1

[11] = system: SK-LU-1
Procedure, shortened: as §1

[12] = system: A-427
Procedure, shortened: as §1

[13] = system: NCI-H1793
Procedure, shortened: as §1

[14] = system: NCI-H1792
Procedure, shortened: as §1

[15] = system: UMC-11
Procedure, shortened: as §1

[16] = system: NCI-H358
Procedure, shortened: as §1

[17] = system: NCI-H1944
Procedure, shortened: as §1

[18] = system: LC-2-ad
Procedure, shortened: as §1

[19] = system: LU99A
Procedure, shortened: as §1

[20] = system: LXF-289
Procedure, shortened: as §1

[21] = system: NCI-H460
Procedure, shortened: as §1

[22] = system: HCC-366
Procedure, shortened: as §1

CCN(CC)CCCCNc1ncc2cc(-c3cc(OC)cc(OC)c3)c(NC(=O)NC(C)(C)C)nc2n1 + CC(=O)Nc1cccc(-n2c(=O)n(C3CC3)c(=O)c3c(Nc4ccc(I)cc4F)n(C)c(=O)c(C)c32)c1 [Trametinib] (partner 0.02 µM)
relative viability ([1]; first compound 0.01 µM): 0.263
relative viability ([1]; first compound 0.1 µM): 0.277
relative viability ([1]; first compound 0.3162 µM): 0.281
relative viability ([1]; first compound 1 µM): 0.215
relative viability ([2]; first compound 0.01 µM): 0.787
relative viability ([2]; first compound 0.03162 µM): 0.916
relative viability ([2]; first compound 0.1 µM): 0.947
relative viability ([2]; first compound 0.3162 µM): 0.665
relative viability ([2]; first compound 1 µM): 0.522
relative viability ([3]; first compound 0.01 µM): 0.452
relative viability ([3]; first compound 0.03162 µM): 0.395
relative viability ([3]; first compound 0.1 µM): 0.398
relative viability ([3]; first compound 0.3162 µM): 0.37
relative viability ([3]; first compound 1 µM): 0.339
relative viability ([4]; first compound 0.01 µM): 0.521
relative viability ([4]; first compound 0.03162 µM): 0.682
relative viability ([4]; first compound 0.1 µM): 0.496
relative viability ([4]; first compound 0.3162 µM): 0.469
relative viability ([4]; first compound 1 µM): 0.547
relative viability ([5]; first compound 0.01 µM): 0.417
relative viability ([5]; first compound 0.03162 µM): 0.406
relative viability ([5]; first compound 0.1 µM): 0.483
relative viability ([5]; first compound 0.3162 µM): 0.45
relative viability ([5]; first compound 1 µM): 0.451
relative viability ([6]; first compound 0.01 µM): 0.264
relative viability ([6]; first compound 0.03162 µM): 0.244
relative viability ([6]; first compound 0.1 µM): 0.266
relative viability ([6]; first compound 0.3162 µM): 0.254
relative viability ([6]; first compound 1 µM): 0.192
relative viability ([7]; first compound 0.01 µM): 0.987
relative viability ([7]; first compound 0.03162 µM): 0.929
relative viability ([7]; first compound 0.1 µM): 0.894
relative viability ([7]; first compound 0.3162 µM): 1
relative viability ([7]; first compound 1 µM): 0.719
relative viability ([8]; first compound 0.01 µM): 0.788
relative viability ([8]; first compound 0.03162 µM): 0.834
relative viability ([8]; first compound 0.1 µM): 0.93
relative viability ([8]; first compound 0.3162 µM): 0.973
relative viability ([8]; first compound 1 µM): 0.875
relative viability ([9]; first compound 0.01 µM): 0.874
relative viability ([9]; first compound 0.03162 µM): 0.685
relative viability ([9]; first compound 0.1 µM): 0.842
relative viability ([9]; first compound 0.3162 µM): 0.819
relative viability ([9]; first compound 1 µM): 0.76
relative viability ([10]; first compound 0.01 µM): 0.303
relative viability ([10]; first compound 0.03162 µM): 0.294
relative viability ([10]; first compound 0.1 µM): 0.33
relative viability ([10]; first compound 0.3162 µM): 0.249
relative viability ([10]; first compound 1 µM): 0.233
relative viability ([11]; first compound 0.01 µM): 0.491
relative viability ([11]; first compound 0.03162 µM): 0.444
relative viability ([11]; first compound 0.1 µM): 0.434
relative viability ([11]; first compound 0.3162 µM): 0.409
relative viability ([11]; first compound 1 µM): 0.333
relative viability ([12]; first compound 0.01 µM): 0.784
relative viability ([12]; first compound 0.03162 µM): 0.68
relative viability ([12]; first compound 0.1 µM): 0.694
relative viability ([12]; first compound 0.3162 µM): 0.595
relative viability ([12]; first compound 1 µM): 0.466
relative viability ([13]; first compound 0.01 µM): 0.456
relative viability ([13]; first compound 0.03162 µM): 0.405
relative viability ([13]; first compound 0.1 µM): 0.422
relative viability ([13]; first compound 0.3162 µM): 0.337
relative viability ([13]; first compound 1 µM): 0.238
relative viability ([14]; first compound 0.01 µM): 0.432
relative viability ([14]; first compound 0.03162 µM): 0.42
relative viability ([14]; first compound 0.1 µM): 0.415
relative viability ([14]; first compound 0.3162 µM): 0.518
relative viability ([14]; first compound 1 µM): 0.232
relative viability ([15]; first compound 0.01 µM): 0.686
relative viability ([15]; first compound 0.03162 µM): 0.483
relative viability ([15]; first compound 0.1 µM): 0.593
relative viability ([15]; first compound 0.3162 µM): 0.764
relative viability ([15]; first compound 1 µM): 0.695
relative viability ([16]; first compound 0.01 µM): 0.127
relative viability ([16]; first compound 0.03162 µM): 0.15
relative viability ([16]; first compound 0.1 µM): 0.143
relative viability ([16]; first compound 0.3162 µM): 0.139
relative viability ([16]; first compound 1 µM): 0.125
relative viability ([17]; first compound 0.01 µM): 0.428
relative viability ([17]; first compound 0.03162 µM): 0.398
relative viability ([17]; first compound 0.1 µM): 0.403
relative viability ([17]; first compound 0.3162 µM): 0.416
relative viability ([17]; first compound 1 µM): 0.401
relative viability ([18]; first compound 0.01 µM): 0.874
relative viability ([18]; first compound 0.03162 µM): 1.02
relative viability ([18]; first compound 0.1 µM): 0.992
relative viability ([18]; first compound 0.3162 µM): 0.967
relative viability ([18]; first compound 1 µM): 0.841
relative viability ([19]; first compound 0.01 µM): 0.593
relative viability ([19]; first compound 0.03162 µM): 0.537
relative viability ([19]; first compound 0.1 µM): 0.527
relative viability ([19]; first compound 0.3162 µM): 0.6
relative viability ([19]; first compound 1 µM): 0.505
relative viability ([20]; first compound 0.01 µM): 0.704
relative viability ([20]; first compound 0.03162 µM): 0.703
relative viability ([20]; first compound 0.1 µM): 0.637
relative viability ([20]; first compound 0.3162 µM): 0.759
relative viability ([20]; first compound 1 µM): 0.644
relative viability ([21]; first compound 0.01 µM): 0.127
relative viability ([21]; first compound 0.03162 µM): 0.208
relative viability ([21]; first compound 0.1 µM): 0.153
relative viability ([21]; first compound 0.3162 µM): 0.124
relative viability ([21]; first compound 1 µM): 0.062
relative viability ([22]; first compound 0.01 µM): 0.352
relative viability ([22]; first compound 0.03162 µM): 0.386
relative viability ([22]; first compound 0.1 µM): 0.437
relative viability ([22]; first compound 0.3162 µM): 0.358
relative viability ([22]; first compound 1 µM): 0.309

From the supplement of paper PMC10307832
